Measurements as given in the Bradley open melting point set (2014).

SMILES	melting point
CCC(=O)O[C@]1(C(=O)SCF)[C@H](C)C[C@H]2[C@@H]3C[C@H](F)C4=CC(=O)C=C[C@]4(C)[C@@]3(F)[C@@H](O)C[C@@]21C [Fluticasone Propionate]	272 °C
CC(C)(C)c1cc(C(=Nc2ccccc2)Nc2ccccc2)cc(C(C)(C)C)c1O [3,5-Di-tert-butyl-4-hydroxy-N,N'-diphenyl-benzamidine]	131 °C
NC(=O)OCC(COC(N)=O)c1ccccc1 [Felbamate]	152 °C
Cc1ccc(N=C=O)cc1N=C=O [toluene-2,4-diisocyanate]	21 °C
Cl[C@H]1[C@H](Cl)[C@@H](Cl)[C@H](Cl)[C@H](Cl)[C@H]1Cl [a-hexachlorocyclohexane]	159 °C
C=CCSCC=C [diallyl sulfide]	-83 °C
CCC(C)c1cc([N+](=O)[O-])cc([N+](=O)[O-])c1O (stereo unspecified) [2-sec-Butyl-4,6-dinitrophenol]	55 °C
O=C(Cl)c1ccccc1 [benzoyl chloride]	-1 °C
CCCC(=O)O [Butyric acid]	-5 °C
CCC/C=C/CCC [trans-4-octene]	-94 °C
O=C(OC[C@H]1O[C@@H](OC(=O)c2cc(O)c(O)c(OC(=O)c3cc(O)c(O)c(O)c3)c2)[C@H](OC(=O)c2cc(O)c(O)c(OC(=O)c3cc(O)c(O)c(O)c3)c2)[C@@H](OC(=O)c2cc(O)c(O)c(OC(=O)c3cc(O)c(O)c(O)c3)c2)[C@@H]1OC(=O)c1cc(O)c(O)c(OC(=O)c2cc(O)c(O)c(O)c2)c1)c1cc(O)c(O)c(OC(=O)c2cc(O)c(O)c(O)c2)c1	210 °C
CCCCN(CCCC)CCCN [N,N-di-n-butyl-1,3-propylenediamine]	-70 °C
CC(=O)OC1CCC2(C)C(CCC3C2CCC2(C)C3CCC2(O)CCc2ccccc2)C1 (stereo unspecified) [17-hydroxy-21-phenylpregnan-3-yl acetate]	138 °C
O[C@@H]1CC[C@H](C[C@H]1OC)/C=C(C)[C@H]2OC(=O)[C@@H]4CCCCN4C(=O)C(=O)[C@]3(O)O[C@H]([C@H](C[C@@H](C)CC(C)=C[C@@H](CC=C)C(=O)C[C@H](O)[C@H]2C)OC)[C@H](C[C@H]3C)OC [Tacrolimus]	126 °C
CC(C)N [isopropylamine]	-101 °C
C[Si](C)(C)Cl [Chloro(trimethyl)silane]	-58 °C
COCC(CCC(=O)OC)N1CC=CC1 (stereo unspecified) [methyl 4-(2,5-dihydro-1H-pyrrol-1-yl)-5-methoxypentanoate]	145 °C
[2H]c1c([2H])c([2H])c2c([2H])c([2H])c([2H])c([2H])c2c1[2H] [(~2~H_8_)Naphthalene]	82 °C
C#CCCCCC [1-heptyne]	-81 °C
N#Cc1ccc(C(c2ccc(C#N)cc2)n2cncn2)cc1 [letrozole]	181 °C

SMILES	melting point
O=C1C=CC(=O)c2ccccc21 [1,4-Naphthoquinone]	126 °C
C=CC(=O)OC [Methyl acrylate]	-75 °C
CCCC=O [Butyraldehyde]	-96 °C
Cc1cccc(N)c1C [2,3-dimethylaniline]	2 °C
C[C@@H]1CCC[C@H](C)C1 [cis-1,3-dimethylcyclohexane]	-76 °C
N[C@@H](CCC(=O)O)C(=O)O [L-Glutamic Acid]	224 °C
c1c[nH]nn1 [1,2,3-triazole]	24 °C
Clc1cc2c(cc1Cl)-c1cc(Cl)c(Cl)cc1-2 [Biphenylene, 2,3,6,7-tetrachloro-]	239 °C
c1ccc(NNc2ccccc2)cc1 [1,2-Diphenylhydrazine]	125 °C
C#CCO [propargyl alcohol]	-53 °C
CCCCOCCOCCOC(C)=O [2-(2-n-butoxyethoxy)ethyl acetate]	-32 °C
BrBr [Bromine]	-7.2 °C
CC(=O)OC1CCC2(C)C(=CCC3C2CCC2(C)C3CCC2(O)C#Cc2ccccc2)C1 (stereo unspecified) [17-hydroxy-21-phenylpregn-5-en-20-yn-3-yl acetate]	148 °C
CCCC(=O)O [butanoic_acid]	-5 °C
O=C(O)/C=C\C(=O)O [(2Z)-But-2-enedioic acid]	138 °C
OCCOCCOCCO [2,2'-[Ethane-1,2-diylbis(oxy)]diethanol]	-4 °C
O=C(OCCOCn1c2N\C(=N/C(=O)c2nc1)N)C [O-Acetylacyclovir]	242 °C
C=C(C)C(C)C [2,3-dimethyl-1-butene]	-157 °C
O=C[C@H](O)[C@@H](O)[C@H](O)[C@H](O)CO [D-glucose, anhydrous]	151 °C
CNc1ccc(Cl)cc1C(=O)c1ccccc1 [5-chloro-2-methylaminobenzophenone]	96 °C

Second part, the molecule after the results:

melting point	SMILES
190 °C	Nc1cc2ccccc2cc1N [Naphthalene-2,3-diamine]
162 °C	O=C(O)c1ccccc1I [2-iodobenzoic acid]
93 °C	Cc1c([N+](=O)[O-])cc[n+]([O-])c1C [2,3-dimethyl-4-nitropyridine n-oxide]
58 °C	OCC(O)COc1ccccc1 (stereo unspecified) [3-phenoxy-1,2-propanediol]
166 °C	Nc1cccc(F)c1C(=O)O [2-amino-6-fluorobenzoic acid]
86 °C	COC(=O)c1ccc(C(C)=O)cc1 [methyl 4-acetylbenzoate]
55 °C	Cc1ccc([N+](=O)[O-])c(O)c1 [5-methyl-2-nitrophenol]
108 °C	Cc1ccccc1C(=O)O [2-Methylbenzoic acid]
157 °C	O=C1OC2(OC=C(c3ccccc3)C2=O)c2ccccc21 (stereo unspecified) [fluorescamine]
107 °C	O=C(Oc1ccc2ccccc2c1)c1ccccc1 [2-naphthyl benzoate]
2 °C	Cc1cc(C)c(Br)c(C)c1 [2-bromomesitylene]
49 °C	COC(=O)c1cc(Cl)ccc1[N+](=O)[O-] [methyl 5-chloro-2-nitrobenzoate]
61 °C	Cc1ccc(C)c(OCCCC(C)(C)C(=O)O)c1 [gemfibrozil]
98 °C	OB(O)c1ccccc1Cl [2-chlorobenzeneboronic acid]
154 °C	O=c1cc(CO)occ1O [kojic acid]
122 °C	CC(=O)Nc1ccc(F)cc1F [2',4'-difluoroacetanilide]
170 °C	O=Cc1ccc(F)c(B(O)O)c1 [2-fluoro-5-formylbenzeneboronic acid]
-42 °C	O=CCCc1ccccc1 [3-phenylpropionaldehyde]
92 °C	Cc1cc(Cl)c(C)cc1N [4-chloro-2,5-dimethylaniline]
70 °C	O=C(Oc1ccccc1)c1ccccc1 [phenyl_benzoate]
68.5 °C	CCCCOC(=O)c1ccc(O)cc1 [Butyl 4-hydroxybenzoate]
102 °C	O=S(=O)(Cl)c1cc(S(=O)(=O)c2ccccc2)cs1 [4-(phenylsulfonyl)thiophene-2-sulfonyl chloride]
102 °C	CC1=CC(=O)c2ccccc2C1=O [Menadione]
58 °C	CCCCOC(=O)c1ccc(N)cc1 [butamben]
76 °C	CC(C)Cc1ccc(C(C)C(=O)O)cc1 (stereo unspecified) [ibuprofen]
275 °C	O=[N+]([O-])c1ccc(N/N=C2/Cc3c2ccc2ccccc32)c([N+](=O)[O-])c1
